# Tests used:
# [1] = animal studies; cited from earlier work
# [2] = Treatment of plantar fasciitis by topical gallium nitrate solution (single patient); type: in vivo, human
# Protocol: The patient was having continuous severe pain from the plantar fasciitis for over six months after treatments with injected cortisone, special braces and hydrotherapy none of which gave relief.
# Patient was treated with 5 ml's of 14% gallium nitrate solution applied to the bottom of the affected foot for 30 minutes every other day for three treatments. After each treatment the remaining solution was washed off and the exact amount of absorbed gallium nitrate was not measured. […] The plantar fasciitis has not returned for 10 years. The pain elimination from reduced inflammation is an indicator that the gallium ions bonded to the calcified structures at an inflammation site.
# [3] = Treatment of rheumatoid arthritis of the wrist by topical gallium nitrate solution (single patient); type: in vivo, human; conditions: about 100 mg
# Protocol: Patient had persistent rheumatoid arthritis of the wrist for over six months and was treated with a single dose of ¾ ml of 14% gallium nitrate solution, about 100 mg, as a topical application for one hour. […] Again, the pain elimination from reduced inflammation is an indicator that the gallium ions bonded to the calcified structures at an inflammation site.
# [4] = parameters: dose or concentration left out as unconfirmed; conditions: of gallium nitrate over 5-7 days; cited from earlier work
structure (smiles),measurement,setting,value
O=[N+]([O-])[O-].O=[N+]([O-])[O-].O=[N+]([O-])[O-].[Ga+3] [gallium nitrate],carbonyl oxidation and protein nitration,[1],reduction of carbonyl oxidation and protein nitration
same,pain relief after each treatment,"[2]; 5 ml of 14% gallium nitrate solution on bottom of affected foot, 30 minutes, every other day, three treatments",complete relief of pain for several hours after each treatment
same,time without return of plantar fasciitis,[2]; after three topical treatments,≥ 10 years
same,pain outcome after the third treatment,[2]; one week after third topical treatment,the pain disappeared completely one week later
same,immediate pain relief,"[3]; single topical dose of ¾ ml of 14% gallium nitrate solution, one hour",Some pain relief was noticed immediately
same,arthritic pain after two months,[3]; single topical dose,the arthritic pain was not noticeable
same,duration without arthritic pain in the wrist,[3]; single topical dose,has not experienced arthritic pain in the wrist for two years
same,reduction of calcium excretion,[4],70+18%

# Reference: patent publication US10507218B2, “Treatment of cardiovascular disease by using gallium compounds to bind calcified lesions” (LIPIDRISK, LLC, priority 2018, dated 2019)
